Measured values from patent US9221810B2, “Substituted bicyclic aromatic compounds as S-nitrosoglutathione reductase inhibitors” (Nivalis Therapeutics, Inc., priority 2010, dated 2015).

Experiments:
GSNOR = biological target: T1, GSNOR (Homo sapiens, UniProt P11766); experiment: GSNOR assay (inhibition of GSNOR activity, NADH absorbance at 340 nm); type: biochemical; details: printed as 'about <'; 0.240 mM GSNO, 0.300 mM NADH, pH 7.4, 25° C.
T1 construct: made in house; host or cells: E. coli (arabinose-induced)
T1 sequence (P11766 whole entry): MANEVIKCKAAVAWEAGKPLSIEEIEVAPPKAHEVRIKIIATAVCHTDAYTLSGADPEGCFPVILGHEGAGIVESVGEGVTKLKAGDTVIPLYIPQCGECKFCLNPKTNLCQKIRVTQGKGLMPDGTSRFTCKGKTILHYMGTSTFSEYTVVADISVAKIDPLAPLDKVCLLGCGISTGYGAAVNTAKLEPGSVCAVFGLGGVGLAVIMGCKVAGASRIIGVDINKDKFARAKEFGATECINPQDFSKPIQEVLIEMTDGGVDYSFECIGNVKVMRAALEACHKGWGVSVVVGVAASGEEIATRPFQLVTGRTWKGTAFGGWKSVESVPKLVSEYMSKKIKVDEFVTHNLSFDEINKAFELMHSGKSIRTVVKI
Experimental: GSNOR expression and purification is described in Biochemistry 2000, 39, 10720-10729.
GSNOR Fermentation: Pre-cultures were grown from stabs of a GSNOR glycerol stock in 2XYT media containing 100 ug/ml ampicillin after an overnight incubation at 37° C. Cells were then added to fresh 2XYT (4 L) containing ampicillin and grown to an OD (A600) of 0.6-0.9 at 37° C. before induction. GSNOR expression was induced with 0.1% arabinose in an overnight incubation at 20° C.
GSNOR Purification: E. coli cell paste was lysed by nitrogen cavitation and the clarified lysate purified by Ni affinity chromatography on an AKTA FPLC (Amersham Pharmacia). The column was eluted in 20 mM Tris pH 8.0/250 mM NaCl with a 0-500 mM imidazole gradient. Eluted GSNOR fractions containing the Smt-GSNOR fusion were digested overnight with Ulp-1 at 4° C. to remove the affinity tag then re-run on the Ni column under the same conditions. GSNOR was recovered in the flowthrough fraction and for crystallography is further purified by Q-Sepharose and Heparin flowthrough chromatography in 20 mM Tris pH 8.0, 1 mM DTT, 10 uM ZnSO4.
GSNOR Assay: GSNO and enzyme/NADH Solutions are made up fresh each day. The solutions are filtered and allowed to warm to room temperature. GSNO solution: 100 mM NaPO4 (pH 7.4), 0.480 mM GSNO. 396 μL of GSNO Solution is added to a cuvette followed by 8 μL of test compound in DMSO (or DMSO only for full reaction control) and mixed with the pipette tip. Compounds to be tested are made up at a stock concentration of 10 mM in 100% DMSO. 2 fold serial dilutions are done in 100% DMSO. 8 μL of each dilution are added to an assay so that the final concentration of DMSO in the assay is 1%. The concentrations of compounds tested range from 100 to 0.003 μM. Enzyme/NADH solution: 100 mM NaPO4 (pH 7.4), 0.600 mM NADH, 1.0 μg/mL GSNO Reductase. 396 μL of the Enzyme/NADH solution is added to the cuvette to start the reaction. The cuvette is placed in the Cary 3E UV/Visible Spectrophotometer and the change in 340 nm absorbance/min at 25° C. is recorded for 3 minutes. The assays are done in triplicate for each compound concentration. IC50's for each compound are calculated using the standard curve analysis in the Enzyme Kinetics Module of SigmaPlot.
Final assay conditions: 100 mM NaPO4, pH 7.4, 0.240 mM GSNO, 0.300 mM NADH, 0.5 μg/mL GSNO Reductase, and 1% DMSO. Final volume: 800 μL/cuvette.

[1] = system: acute dextran sodium sulfate (DSS)-induced IBD; experiment: Acute prophylactic model of DSS-induced IBD in mice; type: in vivo, male C57Bl/6 mice; details: oral 10 mg/kg/day for 10 consecutive days, prophylactic
Excerpt: Acute and chronic models of dextran sodium sulfate (DSS)-induced IBD in mice were used to explore efficacy of GSNORi against this disease. Acute and chronic DSS-induced IBD are widely used and well characterized models that induce pathological changes in the colon similar to those observed in the human disease. In these models and in human disease, epithelial cells within the crypts of the colon are disrupted, leading to dysfunction of the epithelial barrier and the ensuing tissue inflammation, edema, and ulceration. GSNORi therapy may benefit IBD by restoring s-nitrosoglutathione (GSNO) levels, and thus prevent or reverse the epithelial barrier dysfunction. Experimental IBD was induced by administration of DSS in the drinking water of male C57Bl/6 mice (N=8 to 10 mice per group) for 6 consecutive days. GSNORi was dosed orally at doses of 0.1 to 10 mg/kg/day for 10 days starting two days prior to and continuing two days post DSS exposure. Two days post DSS exposure, the effect of GSNORi was assessed in a blinded fashion via endoscopy and histopathology using a five point scale ranging from a score=0 (normal tissue) through a score=4 (ulcerative tissue damage and marked pathological changes). Levels of circulating cytokines involved in inflammatory pathways were also assessed. The effect of GSNORi was compared to vehicle treated controls. The corticosteroid, prednisolone, was used as the positive control in this study and was administered daily at 3 mg/kg/day via oral dosing. Naïve mice (N=5) were also assessed as a normal tissue control.

[2] = Mouse pharmacokinetic (PK) study; type: in vivo, male BALB/c mice; details: male, BALB/c, plasma, po, 10 mg/kg, IV 2 mg/kg, read-out: oral bioavailability (% F)
Excerpt: The mouse was used to determine the pharmacokinetics of compounds of the invention. This species is widely used to assess the bioavailability of compounds by administering both oral (PO) and intravenous (IV) test articles. Efficacy of the compounds of the invention was compared by assessing plasma exposure in male BALB/c mice either via IV or PO administration at the times of peak activity.
Compounds of the invention were reconstituted in a phosphate buffered saline (PBS)/10% Solutol (HS 15) clear solution resulting in a concentration of 0.2 mg/mL and administered to mice (2 mg/kg) as a single IV dose. Animals were dosed via the lateral tail vein. Blood samples were collected at designated time points (0.083, 0.25, 0.5, 1, 2, 4, 8, 16, 24 hours) by cardiac puncture under isoflurane anesthesia (up to 1 mL blood per animal). The blood was collected into tubes containing Li-Heparin. The blood samples were kept on ice until centrifugation within approximately 30 minutes of collection. The plasma was transferred into labeled polypropylene tubes and frozen at −70° C. until analyzed by LC/MS/MS.
The compounds of the invention were reconstituted in 40% Propylene Glycol/40% Propylene Carbonate/20% of a 5% Sucrose clear solution resulting in a concentration of 2 mg/mL and administered to mice (10 mg/kg) as a single oral dose via gavage. Blood samples were collected at 0.25, 0.5, 1, 2, 4, 8, 12, 16, 20 and 24 hours post dose by cardiac puncture under isoflurane anesthesia. The blood was collected in tubes containing Li-Heparin. […] The plasma was transferred into labeled polypropylene tubes and frozen at −70° C. until analyzed by LC/MS/MS.
Plasma samples at each timepoint were analyzed using a LC-MS/MS with a lower limit of quantification (LLOQ) of 1 ng/mL. Plasma was analyzed to determine the amount of the compound of the invention in each sample and regression curves generated for each compounds of the invention in the relevant matrixes. […]
In addition to the above PK parameters, bioavailability (% F) was calculated.

[3] = system: cigarette smoke-induced COPD (subchronic 11 day); experiment: Subchronic (11 day) cigarette smoke exposure COPD model; type: in vivo, female C57Bl/6 mice; details: subchronic 11 day model; roflumilast 5 mg/kg/day
Experimental: The efficacy of GSNOR inhibitors was assessed in a mouse model of chronic obstructive pulmonary disease (COPD) induced by short duration (4 days or 11 days) of exposure to cigarette smoke. Infiltration of inflammatory cells into the bronchoalveolar lavage fluid (BALF) and BALF levels of chemokines involved in inflammation and tissue turnover/repair were measured to assess the influences of GSNOR inhibitors on some of the early events associated with the initiation and progression of COPD.
Efficacy of GSNOR inhibitors against COPD was explored using acute (4 day) and subchronic (11 day) models of cigarette smoke-induced COPD in mice. […] In animal models, changes in lung pathology are only evident after extended (several months) duration of exposure to cigarette smoke, thus making chronic models prohibitive as effective screening tools. More recently, models exploring inflammatory responses after short duration (2 weeks or less) of smoke exposure in mice have been utilized as tools for screening efficacy and mechanisms of action of novel therapeutics against COPD. The key roles of inflammation in the initiation and progression of COPD, make these short duration models relevant for initial tests of efficacy of novel therapeutics.
Subchronic (11 Day) Smoke Exposure Model: Female C57Bl/6 mice (N=10 per group) were exposed to cigarette smoke generated from Marlboro 100 cigarettes without filters. Exposure times were 25 min. on study day 1, 35 min. on study day 2, and 45 min. on study days 3 to 11. GSNOR inhibitors were administered one hour prior to smoke exposure on each day. GSNOR inhibitors were dosed orally at 1 to 10 mg/kg/day for 11 days. The effects of GSNOR inhibitors were assessed by quantitating the number of total cells, and leukocytes differentials in the BALF via light microscopy at 24 h after the last exposure. The effect of GSNOR inhibitors were compared to vehicle treated controls and expressed as percent inhibition of the cigarette smoke induced increases in BALF cell numbers. Roflumilast was used as the positive control for the study and was dosed at 5 mg/kg/day. A group of naïve mice (N=10) was exposed to air and dosed with vehicle as a negative control for the study.

IC50 (GSNOR) [nM]	SMILES	further results
< 100	O=C(O)c1ccc(-c2nc3ccc(O)cc3cc2C(F)(F)F)cc1 [Example 31, 4-(6-hydroxy-3-(trifluoromethyl)quinolin-2-yl)benzoic acid]	–
< 100	O=C(O)c1ccc(-c2ncc3cc(O)ccc3n2)cc1 [Example 45, 4-(6-hydroxyquinazolin-2-yl)benzoic acid]	–
< 100	O=C(O)c1ccc(-c2cc3ccc(O)cc3cn2)c(F)c1 [Example 65, 3-fluoro-4-(7-hydroxyisoquinolin-3-yl)benzoic acid]	–
< 100	O=C(O)c1ccc(-c2cc(F)c3cc(O)ccc3n2)c(Cl)c1 [Example 37, 3-chloro-4-(4-fluoro-6-hydroxyquinolin-2-yl)benzoic acid]	–
< 100	O=C(O)c1ccc(-c2ccc3cc(O)ccc3n2)c(C(F)(F)F)c1 [Example 30, 4-(6-hydroxyquinolin-2-yl)-3-(trifluoromethyl)benzoic acid]	–

Second part, the compound before the results:

SMILES	IC50 (GSNOR) [nM]	further results
O=C(O)[C@H]1CC[C@H](c2ccc3cc(O)ccc3n2)CC1 [Example 6, (1r,4r)-4-(6-hydroxyquinolin-2-yl)cyclohexanecarboxylic acid]	< 500	–
O=C(O)c1ccc(-c2nc3ccc(O)cc3cc2Cl)cc1 [Example 19, 4-(3-chloro-6-hydroxyquinolin-2-yl)benzoic acid]	–	decrease of percent of mice with severe colon injury scores via endoscopy [1]: 31 % of vehicle control; bioavailability [2]: > 9%
Cc1cc(C(=O)O)ccc1-c1ccc2cc(O)ccc2n1 [Example 27, 4-(6-hydroxyquinolin-2-yl)-3-methylbenzoic acid]	–	effects compared to roflumilast (positive control) [3]: comparable to those of roflumilast
O=C(O)c1ccc(-c2ccc3cc(O)ccc3n2)c(F)c1 [Example 13, 3-fluoro-4-(6-hydroxyquinolin-2-yl)benzoic acid]	–	effects compared to roflumilast (positive control) [3]: comparable to those of roflumilast
O=C(O)[C@H]1CC[C@H](c2nc3ccc(O)cc3cc2C(F)(F)F)CC1 [Example 43, (1r,4r)-4-(6-hydroxy-3-(trifluoromethyl)quinolin-2-yl)cyclohexanecarboxylic acid]	< 100	–
O=C(O)c1ccc(-c2nc3ccc(O)cc3cc2Cl)c(F)c1 [Example 28, 4-(3-chloro-6-hydroxyquinolin-2-yl)-3-fluorobenzoic acid]	–	bioavailability [2]: > 9%
